Measurements: the NIST ThermoML archive (doi:10.1016/j.fluid.2014.04.021)

Conditions: 101 kPa, Liquid, Vibrating tube method

C1CCC2=NCCCN2CC1 [1,8-diaza-7-bicyclo[5.4.0]undecene]
Conditions	mass density [kg/m3]
293.15 K	1019.84
298.15 K	1016.15
303.15 K	1012.45
308.15 K	1008.73
313.15 K	1005
318.15 K	1001.25
323.15 K	997.479
328.15 K	993.692
333.15 K	989.886
338.15 K	986.062
343.15 K	982.224
348.15 K	978.366
353.15 K	974.493
358.15 K	970.601
